Laboratory results: US4605744A, “Imidazole derivatives” (Hoffmann-La Roche Inc., priority 1985, dated 1986)
Structures can show the parent of a compound that is named as a salt. Where two headings read alike, the source gives them in different places.

What was measured:
Test in all cases: In vitro antibacterial activity (MIC)
Assay type in all cases: cell-based
C. freundii 8ASM = details: Citrobacter freundii, 8ASM, C. freundii 8ASM; read-out: MIC
Protocol: (§1) Drug dilutions are prepared in Mueller-Hinton broth ranging from 128 to 0.008 μg/ml. The diluted agents are dispensed in 100 μl amounts into the wells of a 96-well tray and used immediately or frozen at -10° to -70° C. until needed. Using an automated inoculator, 1.5 μl of a 10^-2 dilution of an overnight culture is added to each well of the tray. The tops of the trays are then sealed using transparent tape and incubated overnight at 37° C. The trays are examined with the aid of a viewer. The lowest concentration at which no growth is observed is considered to be the minimum inhibitory concentration (MIC).

E. aerogenes 503-478 = details: Klebsiella aerogenes, 503478, E. aerogenes 503-478; read-out: MIC
Protocol: as §1

E. aerogenes 83 = tested on: E. aerogenes 83
Protocol: as §1

E. aerogenes 8 = details: Klebsiella aerogenes, 8, E. aerogenes 8
Protocol: as §1

E. cloacae 214 = details: Enterobacter cloacae, 214, E. cloacae 214; read-out: MIC
Protocol: as §1

E. cloacae 5699 = details: Enterobacter cloacae, 5699, E. cloacae 5699; read-out: MIC
Protocol: as §1

E. cloacae 6951 = tested on: E. cloacae 6951
Protocol: as §1

E. cloacae 9295 = tested on: E. cloacae 9295
Protocol: as §1

E. cloacae 9570A = details: Enterobacter cloacae, read-out: MIC
Protocol: as §1

E. cloacae P99 = details: Enterobacter cloacae, P99, E. cloacae P99
Protocol: as §1

E. coli 387-1 = details: Escherichia coli, 3871, E. coli 387-1; read-out: MIC
Protocol: as §1

E. coli 48 = tested on: E. coli 48
Protocol: as §1

E. coli 4 = tested on: E. coli 4
Protocol: as §1

E. coli 503-455 = details: Escherichia coli, 503455
Protocol: as §1

E. coli 5152 = details: Escherichia coli, 5152, E. coli 5152; read-out: MIC
Protocol: as §1

E. coli R-563 = details: Escherichia coli
Protocol: as §1

K. pneumoniae 35 = details: Klebsiella pneumoniae; K. pneumoniae 35; read-out: MIC
Protocol: as §1

K. pneumoniae 4964 = details: Klebsiella pneumoniae, 4964, K. pneumoniae 4964; read-out: MIC
Protocol: as §1

K. pneumoniae 503-964 = details: Klebsiella pneumoniae, 503964; K. pneumoniae 503-964; read-out: MIC
Protocol: as §1

K. pneumoniae 503-994 = details: Klebsiella pneumoniae, 503994, K. pneumoniae 503-994; read-out: MIC
Protocol: as §1

K. pneumoniae 5096 = details: Klebsiella pneumoniae; K. pneumoniae 5096; read-out: MIC
Protocol: as §1

K. pneumoniae 8357 = details: Klebsiella pneumoniae, 8357, K. pneumoniae 8357; read-out: MIC
Protocol: as §1

K. pneumoniae A = details: Klebsiella pneumoniae, K. pneumoniae A; read-out: MIC
Protocol: as §1

K. pneumoniae HE7 = details: Klebsiella pneumoniae; K. pneumoniae HE7; read-out: MIC
Protocol: as §1

P. aeruginosa 503-56 = details: Pseudomonas aeruginosa, 50356, P. aeruginosa 503-56; read-out: MIC
Protocol: as §1

P. aeruginosa 503-820 = details: Pseudomonas aeruginosa, 503820; P. aeruginosa 503-820; read-out: MIC
Protocol: as §1

P. aeruginosa 6148B = details: Pseudomonas aeruginosa, read-out: MIC
Protocol: as §1

P. aeruginosa 8710 = details: Pseudomonas aeruginosa; P. aeruginosa 8710; read-out: MIC
Protocol: as §1

P. aeruginosa 8780 = details: Pseudomonas aeruginosa; P. aeruginosa 8780; read-out: MIC
Protocol: as §1

P. mirabilis 190 = details: Proteus mirabilis, 190, P. mirabilis 190; read-out: MIC
Protocol: as §1

P. mirabilis 2 = details: Proteus mirabilis, 2, P. mirabilis 2; read-out: MIC
Protocol: as §1

P. rettgeri ATCC 9250 = details: Providencia rettgeri, ATCC9250, P. rettgeri ATCC 9250; read-out: MIC
Protocol: as §1

P. vulgaris ATCC 6380 = details: Proteus vulgaris, ATCC6380, P. vulgaris ATCC 6380; read-out: MIC
Protocol: as §1

S. marcescens 5805 = details: Serratia marcescens, 5805, S. marcescens 5805; read-out: MIC
Protocol: as §1

S. marcescens S2 = details: Serratia marcescens; S. marcescens S2; read-out: MIC
Protocol: as §1

S. marcescens S3 = details: Serratia marcescens; S. marcescens S3; read-out: MIC
Protocol: as §1

S. marcescens S4 = details: Serratia marcescens, S4, S. marcescens S4; read-out: MIC
Protocol: as §1

S. marcescens SM = details: Serratia marcescens, read-out: MIC
Protocol: as §1

S. pneumoniae 6301 = details: Streptococcus pneumoniae, 6301, S. pneumoniae 6301; read-out: MIC
Protocol: as §1

S. pneumoniae 6302 = details: Streptococcus pneumoniae, 6302, S. pneumoniae 6302; read-out: MIC
Protocol: as §1

S. pneumoniae SC = details: Streptococcus pneumoniae, read-out: MIC
Protocol: as §1

S. pyogenes 4 = details: Streptococcus pyogenes, 4, S. pyogenes 4; read-out: MIC
Protocol: as §1

S. schottmuelleri = details: read-out: MIC
Protocol: as §1

S. typhi P58A = details: Salmonella enterica, TYPHI
Protocol: as §1

Measured: MIC

CC1(C)S[C@@H]2[C@H](N=CN3CCC(Cn4ccnc4N)CC3)C(=O)N2[C@H]1C(=O)O [H, [2S-(2alpha,5alpha,6beta)]-6-[[[4-[(2-amino-1H-imidazol-1-yl)methyl-1-piperidinyl]methylene]amino]-3,3-dimethyl-7-oxo-4-thia-1-azabicyclo[3.2.0]heptane-2-carboxylic acid hydrochloride]
0.062 µg/mL: E. cloacae P99 | E. coli 48; Escherichia coli, 48, E. coli 48, read-out: MIC | E. coli 4; Escherichia coli, 4, E. coli 4, read-out: MIC | E. coli R-563; R563, E. coli R-563, read-out: MIC | P. vulgaris ATCC 6380 | S. marcescens S2 | S. schottmuelleri | S. typhi P58A
0.5 µg/mL: E. cloacae 9295; Enterobacter cloacae, 9295 | S. marcescens 5805 | S. marcescens S4
32 µg/mL: E. aerogenes 8 | P. aeruginosa 503-56
4 µg/mL: E. cloacae 6951; Enterobacter cloacae, 6951
128 µg/mL: K. pneumoniae HE7 | P. aeruginosa 8710
8 µg/mL: E. aerogenes 503-478 | E. coli 5152
16 µg/mL: E. aerogenes 83; Klebsiella aerogenes, 83
0.031 µg/mL: C. freundii 8ASM | K. pneumoniae A
0.25 µg/mL: E. cloacae 5699 | E. cloacae 9570A | K. pneumoniae 35 | P. mirabilis 2 | P. rettgeri ATCC 9250
64 µg/mL: K. pneumoniae 4964 | K. pneumoniae 5096 | P. aeruginosa 503-820 | P. aeruginosa 6148B
0.125 µg/mL: E. cloacae 214 | E. coli 387-1 | K. pneumoniae 503-964 | K. pneumoniae 503-994 | K. pneumoniae 8357 | P. mirabilis 190 | S. marcescens S3 | S. marcescens SM
1 µg/mL: E. coli 503-455 | S. pneumoniae 6301 | S. pneumoniae 6302 | S. pneumoniae SC | S. pyogenes 4
> 128 µg/mL: P. aeruginosa 8780

CN(C)C=Nc1nccn1CCCC1CCN(C=N[C@@H]2C(=O)N3[C@@H]2SC(C)(C)[C@@H]3C(=O)O)CC1 [S, [2S-(2alpha,5alpha,6beta)]-6-[[[4-[3-[2-[[(dimethylamino)methylene]amino]-1H-imidazol-1-yl]propyl]-1-piperidinyl]methylene]amino]-3,3-dimethyl-7-oxo-4-thia-1-azabicyclo[3.2.0]heptane-2-carboxylic acid 1.7 molar hydrochloride 2.6 molar hydrate]
0.125 µg/mL: C. freundii 8ASM
32 µg/mL: E. aerogenes 8
2 µg/mL: E. aerogenes 503-478 | E. coli 387-1 | P. mirabilis 2 | S. marcescens S2 | S. marcescens S3 | S. marcescens SM
4 µg/mL: E. aerogenes 83; Klebsiella aerogenes, 83, E. aerogenes 83, read-out: MIC | E. cloacae 214 | E. coli 4; Escherichia coli, 4 | S. marcescens 5805 | S. marcescens S4
0.25 µg/mL: P. rettgeri ATCC 9250 | S. schottmuelleri | S. typhi P58A
> 128 µg/mL: K. pneumoniae 5096 | K. pneumoniae HE7 | P. aeruginosa 503-56
0.5 µg/mL: E. coli 48; Escherichia coli, 48 | K. pneumoniae 35 | K. pneumoniae 4964 | K. pneumoniae 503-964 | K. pneumoniae 503-994 | K. pneumoniae 8357 | K. pneumoniae A
1 µg/mL: E. cloacae 5699 | E. cloacae 9295; Enterobacter cloacae, 9295, E. cloacae 9295, read-out: MIC | E. cloacae 9570A | E. cloacae P99 | E. coli 503-455 | P. mirabilis 190 | P. vulgaris ATCC 6380
8 µg/mL: E. cloacae 6951; Enterobacter cloacae, 6951, E. cloacae 6951, read-out: MIC | E. coli 5152 | E. coli R-563; R563
